Experimental data published in publication PMC9194936, “Preclinical Activity and Pharmacokinetic/Pharmacodynamic Relationship for a Series of Novel Benzenesulfonamide Perforin Inhibitors” (ACS Pharmacology & Translational Science, 2022).
Marks after values point to notes of the source that are not given here.

How the values were obtained:
[1] = Binding to proteins in KHYG-1 cell media (RPMI with 0.1% BSA) by equilibrium dialysis; assay type: in vitro ADME; details: bovine, pH 7.4, read-out: free fraction in the KHYG-1 cell media
[2] = Bodyweight, spleen and blood cellularity in unmanipulated naive mice; assay type: in vivo, mouse
Text: Splenic atrophy may occur as a direct treatment-related effect or indirectly subsequent to bodyweight loss.[32] Spleen size does normally vary so is not a reliable indicator of splenic dysfunction;[33] however, severe atrophy can prevent the normal function of the spleen and indicate systemic immunotoxicity.[34] Given that reduced splenic cellularity had not been noted in other in vivo mouse disease models using 1,[14],[15] we further investigated the impact of 1 on mouse spleen using extended dosing strategies on unmanipulated naïve mice and assessing changes in bodyweight, splenocyte, and blood cell counts and leukocyte frequencies in the spleen. The mice were treated with either 100 or 150 mg/kg of 1 given by intraperitoneal injection twice daily for up to 7 days.
For the determination of splenic cell counts, mouse spleens were harvested and the cells dispersed in media by gentle teasing and then centrifuged at 500g. Cell pellets were resuspended in media and total spleen cell counts were performed manually using a standard hemocytometer and light microscopy. Lymphocyte subsets were quantified by flow cytometry using the following antibody reagents: BV605 rat anti-mouse CD3 clone 17A2 (#564009, BD Biosciences); BV786 rat anti-mouse CD4 clone RM4–5 (#563727, BD Biosciences); BV711 rat anti-mouse CD8a clone 53-6.7 (#100748, BioLegend); PE-Cy7 mouse anti-mouse NK1.1 clone PK136 mouse (#552878, BD Biosciences); APC rat anti-mouse CD19 clone 1D3 (#550992, BD Biosciences). Peripheral blood cell counts and spleen white blood cell counts were determined on a Beckman Coulter Ac.T diff hematology analyzer.

[3] = design: method as in PMID 28582670; AUC: concentration or dose not given beside the values; details: mouse plasma; cited from earlier work
[4] = Plasma protein binding by equilibrium dialysis; assay type: in vitro ADME, mouse
Method: The plasma protein binding of the compounds was determined by equilibrium dialysis (12–14 kDa cutoff membrane). […] The dialysis unit was covered with an adhesive sealing film to prevent evaporation of the contents and placed in an incubator (Innova-42, New Brunswick Scientific) maintained at 37 °C with gentle mixing (80 rpm) for 6 h. Next, a 10 μL sample was aspirated from the plasma side and mixed with 90 μL of fresh PBS, whereas a 90 μL sample from the buffer side was removed and combined with 10 μL of drug-free plasma to ensure uniform matrix composition. Ice-cold acetonitrile (300 μL; Merck Millipore, Burlington, MA) containing internal standard (a BZS analogue of similar chemical structure) was added to each sample to precipitate protein and was vortexed for 2 min and centrifuged for 5 min at 13 000 rpm. The supernatant was diluted with 0.01% formic acid in ultrapure water (Milli-Q) (1:1) and quantitated by liquid chromatography–tandem mass spectrometry (LC-MS/MS). Each compound was tested in triplicate alongside control compounds known to have low (e.g., lidocaine) and high (e.g., amitriptyline) plasma protein binding. For media binding studies, the same assay was used, but RPMI with 0.1% BSA was used in place of CD1 mouse plasma.

[5] = Splenocyte cellularity and tolerability in the bone marrow transfer assay; assay type: in vivo; details: all dose levels (100, 75 and 50% of MTD), qd x 4
Method: For the determination of splenic cell counts, mouse spleens were harvested and the cells dispersed in media by gentle teasing and then centrifuged at 500g. Cell pellets were resuspended in media and total spleen cell counts were performed manually using a standard hemocytometer and light microscopy. […] Peripheral blood cell counts and spleen white blood cell counts were determined on a Beckman Coulter Ac.T diff hematology analyzer.

CN1Cc2cc(-c3ccc(-c4cncc(NS(=O)(=O)c5ccccc5[N+](=O)[O-])c4)s3)ccc2C1=O [Compound 1, N-{5-[5-(2-methyl-1-oxo-2,3-dihydro-1H-isoindol-5-yl)-2-thienyl]-3-pyridinyl}-2-nitrobenzenesulfonamide]
fraction unbound at 6 h, 10 μM [1]: 0.144
platelets ([2]; 100 mg/kg i.p. bid ×7, n = 2): 1041.5 ± 0.3 ^b ×10^9/L
red blood cell ([2]; 100 mg/kg i.p. bid ×7, n = 2): 9.9 ± 0.3 ^b ×10^12/L
white blood cell ([2]; 100 mg/kg i.p. bid ×7, n = 2): 6.1 ± 2.0 ^b ×10^9/L
% change in bodyweight ([2]; 100 mg/kg i.p. bid ×7, n = 6): –5 ± 2%
spleen: % CD3+CD4+ ([2]; 100 mg/kg i.p. bid ×7, n = 6): 7.9 ± 3.3%
spleen: % CD3+CD8+ ([2]; 100 mg/kg i.p. bid ×7, n = 6): 9.1 ± 2.6%
spleen: % CD19+ ([2]; 100 mg/kg i.p. bid ×7, n = 6): 45.4 ± 10.1%
spleen: % NK1.1+ ([2]; 100 mg/kg i.p. bid ×7, n = 6): 2.3 ± 0.6%
spleen: total cell count ([2]; 100 mg/kg i.p. bid ×7, n = 6): 0.39 ± 0.08 ×10^8
% change in bodyweight ([2]; 150 mg/kg i.p. bid ×3, n = 3): –5.1 ± 5.9%
platelets ([2]; 150 mg/kg i.p. bid ×3, n = 3): 1163 ± 149 ×10^9/L
red blood cell ([2]; 150 mg/kg i.p. bid ×3, n = 3): 9.5 ± 0.9 ×10^12/L
spleen: % CD3+CD4+ ([2]; 150 mg/kg i.p. bid ×3, n = 3): 5.6 ± 3.8%
spleen: % CD3+CD8+ ([2]; 150 mg/kg i.p. bid ×3, n = 3): 10.6 ± 3.4%
spleen: % CD19+ ([2]; 150 mg/kg i.p. bid ×3, n = 3): 41.4 ± 5.3%
spleen: % NK1.1+ ([2]; 150 mg/kg i.p. bid ×3, n = 3): 5.0 ± 0.7%
spleen: total cell count ([2]; 150 mg/kg i.p. bid ×3, n = 3): 0.41 ± 0.46 ×10^8
white blood cell ([2]; 150 mg/kg i.p. bid ×3, n = 3): 6.0 ± 0.4 ×10^9/L
weight loss, change in spleen or blood cell counts, reduction in splenic T, B or NK cells vs vehicle ([2]; 100 or 150 mg/kg i.p. twice daily for up to 7 days): Neither dosing schedule resulted in weight loss, change in spleen or blood cell counts or any reduction
AUC [3]: 415 µM·h
Cmax [3]: 105000 nM
fraction unbound at 6 h ([4]; CD1, mouse, pH 7.4, without saturation of plasma protein binding (99.8% protein-bound), read-out: free fraction in plasma): 0.002
total plasma concentration required for unbound IC90 at 6 h ([4]; CD1, mouse, pooled mouse plasma, pH 7.4, at a free fraction of 0.002, read-out: total plasma concentrations required to achieve unbound plasma concentrations equivalent to the in vitro unbound IC90): ~350 µM
fraction unbound at 6 h, 10 μM ([4]; CD1, pH 7.4, mouse plasma, 10 μM, equilibrium dialysis): 0.002
fraction unbound at 6 h, 10 μM ([4]; CD1, pooled mouse plasma, pH 7.4, concentration 10 μM, mouse plasma): 0.002
fraction unbound at 6 h, 100 μM ([4]; CD1, pooled mouse plasma, pH 7.4, concentration 100 μM, mouse plasma): 0.0006
fraction unbound at 6 h, 500 μM ([4]; CD1, pooled mouse plasma, pH 7.4, concentration 500 μM, mouse plasma): 0.0019
fraction unbound at 6 h, 1000 μM ([4]; CD1, pooled mouse plasma, pH 7.4, concentration 1000 μM, mouse plasma): 0.0038
increase in free drug concentrations ([4]; between 500 and 1000 μM): 4 fold
unbound concentration ([4]; concentration 10 μM, mouse plasma): 20 nM
unbound concentration ([4]; concentration 100 μM, mouse plasma): 60 nM
unbound concentration ([4]; concentration 500 μM, mouse plasma): 950 nM
unbound concentration ([4]; concentration 1000 μM, mouse plasma): 3800 nM
reductions in splenocyte number [5]: only minor reductions
tolerability [5]: well tolerated
